Results on one compound are retold here after publication PMC6934184, “Selective DNA-PKcs inhibition extends the therapeutic index of localized radiotherapy and chemotherapy” (The Journal of Clinical Investigation, 2019).

The test has as its target T1, TGFBR1 (ALK5) (Homo sapiens, UniProt P36897).
T1 construct: purchased Thermo Fisher Scientific (Life Technologies) SelectScreen
Kind of test: SelectScreen LanthaScreen. Format: binding. The note with it: read-out: % displacement. The gist of the method:
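Percent values come from Thermo SelectScreen profiling of NU5455, combining activity and binding assays. CSF1R was run in Z'LYTE format at Km app ATP, and CAMK1 in Adapta format with ATP listed at 10.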

T1 sequence (P36897 34-503): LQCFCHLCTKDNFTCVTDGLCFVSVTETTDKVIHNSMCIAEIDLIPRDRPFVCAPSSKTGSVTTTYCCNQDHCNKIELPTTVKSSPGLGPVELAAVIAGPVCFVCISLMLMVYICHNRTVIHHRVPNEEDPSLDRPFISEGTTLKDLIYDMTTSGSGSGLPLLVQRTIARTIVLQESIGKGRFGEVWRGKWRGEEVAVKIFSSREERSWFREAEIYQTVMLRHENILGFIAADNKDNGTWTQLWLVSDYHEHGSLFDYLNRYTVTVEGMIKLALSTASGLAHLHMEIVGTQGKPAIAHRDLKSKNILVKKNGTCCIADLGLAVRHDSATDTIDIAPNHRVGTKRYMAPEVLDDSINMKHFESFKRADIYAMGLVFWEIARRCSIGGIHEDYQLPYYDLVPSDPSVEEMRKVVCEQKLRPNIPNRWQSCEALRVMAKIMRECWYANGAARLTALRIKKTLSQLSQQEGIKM

As to `CN(C(=O)CN1CCOCC1)c1ccc2sc3c(-c4cccc5c(=O)cc(N6CC7CCC(C6)O7)oc45)cccc3c2c1` [NU5455], the inhibition at 1 µM was -0.4%.
